Laboratory results taken from PubChem BioAssay AID324 (DTP/NCI, 2004).
Values joined by “and” are separate entries in the source; they are usually repeats but may differ in a detail not shown here. Equal values may be shown once. Toxic doses and inconclusive results are not listed. Starred links: 1 amine or outer side, 2 acyl side, 3 side chain; linkers in the order of their positions; H or OH if unused. Positions of bridges follow the written chain, without caps; N, C: chain ends. Non-standard residues stand in square brackets, D forms with d. Residues, ends and D or L forms follow the SMILES beside them. Chains are numbered I, II in the order given. Actinocin(9to1) = Cc1c2oc3c(C)ccc(C(=O)[*:1])c3nc-2c(C(=O)[*:2])c(N)c1=O; aThr = C[C@H](O)[C@H](N)C(=O)O; NMeV = CN[C@H](C(=O)O)C(C)C; Sar = CNCC(=O)O

Test system: CD2F1 mice, AMSA-resistant P388 leukemia ip, median survival T/C
Experiment: NCI In Vivo Anticancer Drug Screen. Data for tumor model P388 Leukemia resistant to AMSA; NSC 249992 (intraperitoneal) in CD2F1 (CDF1) mice
Conditions: endpoint: median survival time, higher = longer survival
Description: The antitumor activity of compounds was measured in mice bearing transplantable tumors. Survival or tumor size were measured and the results are expressed as the measurement made in the treated group (T) divided by the measurement made in the vehicle treated control group (C). The tumor model used in this assay is P388 Leukemia resistant to AMSA; NSC 249992 (intraperitoneal) in CD2F1 (CDF1) mice

[1] = dose: 4.32 mg/kg/injection, schedule: Q04DX003 (ip), vehicle: water
[2] = dose: 7.2 mg/kg/injection, schedule: Q04DX003 (ip), vehicle: water

## COc1cc(NS(C)(=O)=O)ccc1Nc1c2ccccc2nc2ccccc12
dose: 1.56 mg/kg/injection, schedule: Q04DX003 (ip), vehicle: other
  T/C: 93 % of control
dose: 2.33 mg/kg/injection, schedule: Q01DX001 (ip), vehicle: other
  T/C: 111 % of control
dose: 2.59 mg/kg/injection, schedule: Q01DX001 (ip), vehicle: other
  T/C: 105 % of control
dose: 2.59 mg/kg/injection, schedule: Q04DX001 (ip), vehicle: other
  T/C: 105 % of control
dose: 2.59 mg/kg/injection, schedule: Q04DX002 (ip), vehicle: other
  T/C: 111 % of control and 116 % of control
dose: 2.59 mg/kg/injection, schedule: Q04DX003 (ip), vehicle: clinical formulation
  T/C: 106 % of control
dose: 2.59 mg/kg/injection, schedule: Q04DX003 (ip), vehicle: other
  T/C: 98 % of control and 100 % of control and 106 % of control
dose: 2.59 mg/kg/injection, schedule: Q04DX003 (ip), vehicle: water
  T/C: 98 % of control and 100 % of control and 104 % of control
dose: 3.89 mg/kg/injection, schedule: Q01DX001 (ip), vehicle: other
  T/C: 109 % of control
dose: 4.32 mg/kg/injection, schedule: Q01DX001 (ip), vehicle: other
  T/C: 105 % of control
dose: 4.32 mg/kg/injection, schedule: Q04DX001 (ip), vehicle: other
  T/C: 105 % of control
dose: 4.32 mg/kg/injection, schedule: Q04DX002 (ip), vehicle: other
  T/C: 117 % of control and 120 % of control
dose: 4.32 mg/kg/injection, schedule: Q04DX003 (ip), vehicle: clinical formulation
  T/C: 123 % of control
dose: 4.32 mg/kg/injection, schedule: Q04DX003 (ip), vehicle: other
  T/C: 91 % of control and 101 % of control and 108 % of control
[1]
  T/C: 100 % of control and 101 % of control and 105 % of control
dose: 6.48 mg/kg/injection, schedule: Q01DX001 (ip), vehicle: other
  T/C: 104 % of control
dose: 7.2 mg/kg/injection, schedule: Q01DX001 (ip), vehicle: other
  T/C: 101 % of control
dose: 7.2 mg/kg/injection, schedule: Q04DX001 (ip), vehicle: other
  T/C: 101 % of control
dose: 7.2 mg/kg/injection, schedule: Q04DX002 (ip), vehicle: other
  T/C: 101 % of control and 114 % of control
dose: 7.2 mg/kg/injection, schedule: Q04DX003 (ip), vehicle: clinical formulation
  T/C: 124 % of control
dose: 7.2 mg/kg/injection, schedule: Q04DX003 (ip), vehicle: other
  T/C: 97 % of control and 110 % of control and 89 % of control
[2]
  T/C: 102 % of control and 107 % of control and 113 % of control
dose: 10.0 mg/kg/injection, schedule: Q04DX003 (ip), vehicle: saline with Tween-80
  T/C: 120 % of control
dose: 10.8 mg/kg/injection, schedule: Q01DX001 (ip), vehicle: other
  T/C: 100 % of control
dose: 12.0 mg/kg/injection, schedule: Q01DX001 (ip), vehicle: other
  T/C: 99 % of control
dose: 12.0 mg/kg/injection, schedule: Q04DX001 (ip), vehicle: other
  T/C: 99 % of control
dose: 12.0 mg/kg/injection, schedule: Q04DX002 (ip), vehicle: other
  T/C: 119 % of control and 120 % of control
dose: 12.0 mg/kg/injection, schedule: Q04DX003 (ip), vehicle: other
  T/C: 90 % of control and 103 % of control (2×)
dose: 12.0 mg/kg/injection, schedule: Q04DX003 (ip), vehicle: water
  T/C: 102 % of control
dose: 18.0 mg/kg/injection, schedule: Q01DX001 (ip), vehicle: other
  T/C: 110 % of control
dose: 20.0 mg/kg/injection, schedule: Q01DX001 (ip), vehicle: other
  T/C: 90 % of control
dose: 20.0 mg/kg/injection, schedule: Q04DX001 (ip), vehicle: other
  T/C: 90 % of control
dose: 20.0 mg/kg/injection, schedule: Q04DX002 (ip), vehicle: other
  T/C: 92 % of control and 111 % of control
dose: 20.0 mg/kg/injection, schedule: Q04DX003 (ip), vehicle: other
  T/C: 106 % of control
dose: 30.0 mg/kg/injection, schedule: Q01DX001 (ip), vehicle: other
  T/C: 105 % of control

## CCN(CC)CCNc1ccc(CO)c2sc3ccccc3c(=O)c12
dose: 10.36 mg/kg/injection, schedule: Q01DX005 (ip), vehicle: water
  T/C: 106 % of control
dose: 17.28 mg/kg/injection, schedule: Q01DX005 (ip), vehicle: water
  T/C: 117 % of control
dose: 28.8 mg/kg/injection, schedule: Q01DX005 (ip), vehicle: water
  T/C: 98 % of control
dose: 48.0 mg/kg/injection, schedule: Q01DX005 (ip), vehicle: water
  T/C: 97 % of control
dose: 80.0 mg/kg/injection, schedule: Q01DX005 (ip), vehicle: water
  T/C: 87 % of control

## CC[C@@]1(O)C[C@H](OC2CC(N(C)C)C(OC3CC(O)C(OC4CCC(=O)C(C)O4)C(C)O3)C(C)O2)c2c(cc3c(c2O)C(=O)c2c(O)ccc(O)c2C3=O)[C@H]1C(=O)OC (stereo partly specified)
[1]
  T/C: 153 % of control and 158 % of control
[2]
  T/C: 123 % of control and 219 % of control

## COc1cc([C@@H]2c3cc4c(cc3[C@@H](OC3OC5CO[C@@H](c6cccs6)OC5C(O)C3O)[C@H]3COC(=O)[C@H]23)OCO4)cc(OC)c1O (stereo partly specified)
dose: 25.0 mg/kg/injection, schedule: Q04DX003 (ip), vehicle: clinical formulation
  T/C: 90 % of control

## CO[C@H]1C[C@](C)(O)Cc2cc3c(c(O)c21)C(=O)c1c(O)cc2c(c1C3=O)O[C@@H]1O[C@@]2(C)[C@H](O)[C@@H](N(C)C)[C@@H]1O
dose: 6.48 mg/kg/injection, schedule: Q04DX003 (ip), vehicle: other
  T/C: 111 % of control
dose: 10.8 mg/kg/injection, schedule: Q04DX003 (ip), vehicle: other
  T/C: 114 % of control
dose: 18.0 mg/kg/injection, schedule: Q04DX003 (ip), vehicle: other
  T/C: 110 % of control
dose: 30.0 mg/kg/injection, schedule: Q04DX003 (ip), vehicle: other
  T/C: 102 % of control

## Cc1c2oc3c(C)ccc(C(=O)N[C@@H]4C(=O)N[C@H](C(C)C)C(=O)N5CCC[C@H]5C(=O)N(C)CC(=O)N(C)[C@@H](C(C)C)C(=O)O[C@H]4C)c3nc-2c(C(=O)N[C@@H]2C(=O)N[C@H](C(C)C)C(=O)N3CCC[C@H]3C(=O)N(C)CC(=O)N(C)[C@@H](C(C)C)C(=O)O[C@H]2C)c(N)c1=O (I: [aThr][dV]P[Sar][NMeV] / II: [aThr][dV]P[Sar][NMeV]; ester I:1-I:C, II:1-II:C; linker I:N-II:N via Actinocin(9to1))
dose: 0.08 mg/kg/injection, schedule: Q04DX003 (ip), vehicle: saline + alcohol
  T/C: 171 % of control
dose: 0.13 mg/kg/injection, schedule: Q04DX003 (ip), vehicle: saline + alcohol
  T/C: 223 % of control
dose: 0.18 mg/kg/injection, schedule: Q04DX003 (ip), vehicle: saline + alcohol
  T/C: 155 % of control
dose: 0.3 mg/kg/injection, schedule: Q04DX003 (ip), vehicle: saline + alcohol
  T/C: 176 % of control
dose: 0.5 mg/kg/injection, schedule: Q04DX003 (ip), vehicle: saline + alcohol
  T/C: 219 % of control

## CC(=O)[C@]1(O)Cc2c(O)c3c(c(O)c2[C@@H](OC2CC(N)C(O)C(C)O2)C1)C(=O)c1c(O)cccc1C3=O (stereo partly specified)
dose: 0.13 mg/kg/injection, schedule: Q04DX003 (ip), vehicle: water
  T/C: 122 % of control
dose: 0.21 mg/kg/injection, schedule: Q04DX003 (ip), vehicle: water
  T/C: 115 % of control
dose: 0.36 mg/kg/injection, schedule: Q04DX003 (ip), vehicle: water
  T/C: 109 % of control
dose: 0.6 mg/kg/injection, schedule: Q04DX003 (ip), vehicle: water
  T/C: 124 % of control
dose: 1.0 mg/kg/injection, schedule: Q04DX003 (ip), vehicle: water
  T/C: 97 % of control

## COC(=O)[C@@H]1c2cc3c(c(O)c2[C@@H](OC2OC(C)C(OC)C(C)(OC)C2OC)C[C@]1(C)O)C(=O)c1c(O)cc2c(c1C3=O)O[C@H]1O[C@]2(C)[C@H](O)[C@@H](N(C)C)[C@@H]1O (stereo partly specified)
dose: 0.43 mg/kg/injection, schedule: Q04DX003 (ip), vehicle: water
  T/C: 108 % of control
dose: 0.52 mg/kg/injection, schedule: Q04DX003 (ip), vehicle: clinical formulation
  T/C: 107 % of control
dose: 0.72 mg/kg/injection, schedule: Q04DX003 (ip), vehicle: water
  T/C: 113 % of control
dose: 0.86 mg/kg/injection, schedule: Q04DX003 (ip), vehicle: clinical formulation
  T/C: 114 % of control
dose: 1.2 mg/kg/injection, schedule: Q04DX003 (ip), vehicle: water
  T/C: 107 % of control
dose: 1.44 mg/kg/injection, schedule: Q04DX003 (ip), vehicle: clinical formulation
  T/C: 112 % of control
dose: 2.0 mg/kg/injection, schedule: Q04DX003 (ip), vehicle: water
  T/C: 118 % of control
dose: 2.4 mg/kg/injection, schedule: Q04DX003 (ip), vehicle: clinical formulation
  T/C: 110 % of control
dose: 3.33 mg/kg/injection, schedule: Q04DX003 (ip), vehicle: water
  T/C: 97 % of control

## O=C1c2ccccc2C(=O)c2c(NCCNCCO)ccc(NCCNCCO)c21
dose: 13.0 mg/kg/injection, schedule: Q04DX003 (ip), vehicle: saline
  T/C: 103 % of control
dose: 21.6 mg/kg/injection, schedule: Q04DX003 (ip), vehicle: saline
  T/C: 103 % of control
dose: 36.0 mg/kg/injection, schedule: Q04DX003 (ip), vehicle: saline
  T/C: 103 % of control
dose: 60.0 mg/kg/injection, schedule: Q04DX003 (ip), vehicle: saline
  T/C: 108 % of control
dose: 100.0 mg/kg/injection, schedule: Q04DX003 (ip), vehicle: saline
  T/C: 113 % of control
